This is an account of results in patent publication US11524940B1, “Inhibitors of cysteine proteases and methods of use thereof” (priority 2020, dated 2022).

For one assay, the target named is 229E Mpro (Human coronavirus 229E (HCoV-229E), UniProt P0C6X1). Kind of assay: 229E Mpro activity. It counts as biochemical. The following applies: read-out: 229E Mpro EC50.
Assay [1] deals with Human Coronavirus (HCov) 229E. Kind of assay: HCoV 229E cytopathic effect (CPE) assay. The following applies: protection from virus-induced CPE, CellTiter Glo. It counts as cell-based. A general note: Cytopathic effects are the visible damage that an infection or toxin causes in cultured cells.
Description: The antiviral activity of compounds is calculated based on the protection of the virus-induced CPE at each concentration normalized by the virus control.
Reagents and instruments used in this assay include luminescent cell viability assay kit CellTiter Glo (Promega) and Microplate Reader Synergy2 (BioTek).
Cytopathic effect (CPE) is measured by CellTiter Glo following the manufacturer's manual. The antiviral activity of compounds is calculated based on the protection of the virus-induced CPE at each concentration normalized by the virus control.
For the next assay, the target named is SARS-CoV2 Mpro (Severe acute respiratory syndrome coronavirus 2 (2019-nCoV) (SARS-CoV-2), UniProt P0DTD1). Nature of the assay: COVID-19 (SARS-CoV2) Mpro enzymatic assay. It counts as biochemical. To be noted: 25 nM Mpro, 25 μM substrate.

pEC50, pIC50: −log10 of the molar value.

229E Mpro, sequence (P0C6X1 2966-3267 limits assumed): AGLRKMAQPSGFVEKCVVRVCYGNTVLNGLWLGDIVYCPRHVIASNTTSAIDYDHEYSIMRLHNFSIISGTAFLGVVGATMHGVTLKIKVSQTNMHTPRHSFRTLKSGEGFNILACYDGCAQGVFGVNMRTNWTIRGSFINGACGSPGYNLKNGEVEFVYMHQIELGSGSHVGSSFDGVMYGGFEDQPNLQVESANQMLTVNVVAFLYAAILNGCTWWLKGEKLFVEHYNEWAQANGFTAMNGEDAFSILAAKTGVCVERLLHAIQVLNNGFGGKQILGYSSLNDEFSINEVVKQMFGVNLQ
Description for 229E Mpro: Compounds are assayed using standard methods to assess compound activity and IC50. […] The assay buffer contains 20 mM of Tris-HCl (pH 7.3), 100 mM of NaCl, 1 mM of EDTA, 5mM of TCEP and 0.1% BSA.

With `N#C[C@H](C[C@@H]1CCCNC1=O)NC(=O)C1CC2(CCCCC2)CN1C(=O)c1cc2cccc(Cl)c2[nH]1` (single isomer, unassigned) [731 (Isomer 1)], the pEC50 (on 229E Mpro; in assay [1] (human coronavirus 229E)) was greater than 5.70 in each case. The same compound showed a pIC50 against SARS-CoV2 Mpro greater than 5.70.

Turning to “(S)-N-((S)-1-cyano-2-((S)-2-oxopyrrolidin-3-yl)ethyl)-1-(4-methoxy-1H-indole-2-carbonyl)-4,4-dimethylpyrrolidine-2- carboxamide [Compound 395]”, the values for the pEC50 (on 229E Mpro; in assay [1]) were 4.52 to 5.00 and 5.00 to 5.70, respectively. At SARS-CoV2 Mpro, this compound had a pIC50 of 5.00 to 5.70.

Regarding `N#C[C@H](C[C@@H]1CCNC1=O)NC(=O)[C@H](CC1CC1)NC(=O)c1cc2cccc(Cl)c2[nH]1` [Compound 531, 7-chloro-N-[(1S)-2-[[(1S)-1-cyano-2-[(3S)-2-oxopyrrolidin-3-yl]ethyl]amino]-1-(cyclopropylmethyl)-2-oxo-ethyl]-1H-indole-2-carboxamide], the pEC50 (at 229E Mpro; in assay [1] (human coronavirus 229E)) was greater than 5.70 throughout.

As for `N#C[C@H](C[C@@H]1CCCNC1=O)NC(=O)C1CC2(CCCCC2)CN1C(=O)c1cc2ccc(Cl)cc2[nH]1` (single isomer, unassigned) [733 (Isomer 1)], the pEC50 (on 229E Mpro; in assay [1] (human coronavirus 229E)) was greater than 5.70 each time. This compound showed a pIC50 against SARS-CoV2 Mpro greater than 5.70.

Take `N#C[C@H](C[C@@H]1CCNC1=O)NC(=O)[C@H](CC1CC1)NC(=O)c1cc2cc(Cl)ccc2[nH]1` [Compound 519, 5-chloro-N-[(1S)-2-[[(1S)-1-cyano-2-[(3S)-2-oxopyrrolidin-3-yl]ethyl]amino]-1-(cyclopropylmethyl)-2-oxo-ethyl]-1H-indole-2-carboxamide]: the pEC50 (at 229E Mpro; in assay [1] (human coronavirus 229E)) was greater than 5.70 in each case.

For `COc1cccc2[nH]c(C(=O)N3CC4(CC3C(=O)N[C@H](C#N)C[C@@H]3CCCNC3=O)CC(F)(F)C4)cc12` (single isomer, unassigned) [723 (Isomer 2)], the pEC50 (on 229E Mpro; in assay [1] (human coronavirus 229E)) was greater than 5.70 in each case. Also, the pIC50 at SARS-CoV2 Mpro is greater than 5.70.

One may read the pEC50 as −log10 of the EC50, conventionally taken in molar units. A word on the pIC50: it is the negative decadic logarithm of the IC50, by convention in mol/L. Higher therefore signals a low IC50.
